From the METLIN SMRT retention time set (Domingo-Almenara et al. 2019) come the findings set out here.

The series in a line: gradient 5% acetonitrile 3 min, to 50% in 2 min, to 85% in 15 min, held 3 min, 100 µL/min. The conditions noted are these: column: Zorbax Extend-C18 2.1 x 50 mm; eluents: water / acetonitrile, 0.1% formic acid. The method in brief: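 Standards, all pure, were combined into mixtures of ~100 molecules and run at 100 μL/min on a Zorbax Extend-C18 column (2.1 × 50 mm, 1.8 μm) with water and acetonitrile, each containing 0.1% formic acid. A coupled quadrupole time-of-flight mass spectrometer operated in positive and negative ionization mode. Retention time values come from computationally picked adduct peaks, each inspected manually.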
`COCCN(CC(=O)N1CCc2sccc2C1COc1ccc(Cl)cc1)C(=O)COC` (stereo unspecified) displayed an RP-LC retention time of 839 s. `CC(=O)c1ccc(NC(=O)c2[nH]c3cc(C)sc3c2CN2CCCC2)cc1` had an RP-LC retention time of 665 s.

In the case of `CSc1nsc(NN)n1`, the RP-LC retention time stood at 647 s. To `CCOc1ccccc1NC(=O)Nc1ccc2c(c1)CCN2S(=O)(=O)c1ccccc1` belongs 1040 s; to `Cc1ccc(Cn2cc(-c3noc(C4CCCC4)n3)nn2)cc1`, 1070 s; to `Cn1cccc1C(=O)N1CCN(C(=O)c2nnn3c2COC(c2ccc(Cl)cc2)C3)CC1` (stereo unspecified), 839 s. For `CC(C)CN(CC(C)C)C(=O)C1CCN(S(=O)(=O)c2cccc3nsnc23)CC1` the value was 1040 s.

`O=C(NCCCn1cccc1)c1ccc(F)c(F)c1`: the RP-LC retention time stood at 791 s. Turning to `CN(C)C(=O)c1n[nH]c2c1CN(C(=O)c1ccc(F)c(F)c1)CC2`, the RP-LC retention time came to 634 s. For `Cc1cccc(-c2ncccc2CNS(=O)(=O)c2ccccc2F)c1` the value was 702 s; for `O=S(=O)(c1ccc2c(c1)OCCO2)N(CCc1cccs1)Cc1cccnc1`, 655 s; for `CCn1cc(-c2nc(CC(=O)N3CCN(c4ccccc4F)CC3)cs2)c2cccnc21`, 976 s.

On to `CCCN1CCN(C(=O)C(C)C2CCN(S(=O)(=O)c3ccc(Cl)s3)CC2)CC1` (stereo unspecified), for which the RP-LC retention time worked out at 674 s. As for `Cc1ccc(CNC(=O)CCc2nnc3c4cc(-c5ccccc5)nn4ccn23)o1`, the RP-LC retention time was found to be 749 s.

In turn, `O=C(NC1CCc2nnc(C3CC3)n2CC1)c1cnco1` (stereo unspecified) gave an RP-LC retention time of 537 s. Regarding `Cc1cc(C)c(-c2noc(C)n2)c(NC(=O)c2cccc(Br)c2)n1`, the RP-LC retention time is 820 s. Turning to `Cc1ncc2n1CCN(S(=O)(=O)c1ccccc1)C2`, the RP-LC retention time turned out to be 584 s. `Cc1ccc(Sc2ccc(N3CCCC(C(=O)N4CCN(c5ccccn5)CC4)C3)nn2)cc1` (stereo unspecified) yielded an RP-LC retention time of 659 s. `O=C(CC1CCCCC1)Nc1cccc(-c2nnc3n2CCCC3)c1` gave an RP-LC retention time of 731 s. With `CCn1cnc(S(=O)(=O)N2CCCC(C(=O)Nc3cccc(C(F)(F)F)c3)C2)c1` (stereo unspecified), the RP-LC retention time was 871 s.

With `O=C(c1ccoc1)N1CCCCC1c1nc(-c2cnccn2)no1` (stereo unspecified), the RP-LC retention time was determined as 664 s. For `N=C(N)n1c(N)nc2ccccc2c1=O` the value was 613 s; for `CCC(c1cccs1)N1C(=O)[C@H]2CN(S(=O)(=O)Cc3ccccc3F)C[C@H]2C1=O` (stereo partly specified), 1000 s; for `O=C(NC1CCSC1=O)c1ccccc1` (stereo unspecified), 638 s.

`O=c1c2sccc2n(Cc2nc(-c3ccc(Br)cc3)no2)c(=O)n1-c1ccc(F)cc1` had an RP-LC retention time of 1100 s. In turn, `Cc1sc(-c2ccn[nH]2)cc1NC(=O)c1cccc(N(C)C)c1` gave an RP-LC retention time of 995 s. The compound `Cc1nnc(C2CCCN(C(=O)c3ccccc3Cl)C2)s1` (stereo unspecified) returned an RP-LC retention time of 652 s. On to `CCN(C(=O)CN1C(=O)CCCc2cc(S(=O)(=O)N3CCC(C)CC3)ccc21)c1ccccc1`, for which the RP-LC retention time came out at 1050 s. To `O=C(Cn1cnc2nc(N3CCC(C(=O)NC4CC4)CC3)sc2c1=O)Nc1cc(F)ccc1F` belongs 693 s; to `COCCN1C(=O)c2cccn2CC1CNC(=O)CC(C)C` (stereo unspecified), 639 s. For `Cc1c(-c2nnc(C3CCC3)o2)c(S(=O)(=O)NCc2ccc(Cl)cc2)c(C)n1C` the value was 1010 s; for `CCOC(=O)c1nc(NCc2ccccc2OCC)c2c(C)noc2n1`, 988 s; for `CCOc1ccccc1C(=O)N1CCN=C1SCc1ccc([N+](=O)[O-])cc1`, 898 s.

With `COc1ccc(-c2noc(NC3CCCC3)n2)cc1`, the RP-LC retention time is 951 s. For `CCc1nc(N)n(CC(=O)Nc2ccc(OC)cc2)c(=O)c1C`, the RP-LC retention time stood at 650 s. For the compound `CN1C(=O)Cc2ccccc2C1C(=O)NCc1cccc(F)c1` (stereo unspecified), the RP-LC retention time was 729 s. In the case of `CCN1CCN(c2cc(C)c3cc(NC(=O)c4ccc(Br)cc4)ccc3n2)CC1`, the RP-LC retention time turned out to be 610 s.

`Cc1ccc(S(=O)(=O)CCc2nc(-c3cccc(-c4ccnn4C)c3)no2)cc1`: the RP-LC retention time was determined as 910 s. With `CCN1CCC(CCNC(=O)C2CN(C(=O)c3cccs3)CC23CCCCC3)CC1` (stereo unspecified), the RP-LC retention time is 625 s. In turn, `Cn1cnc(S(=O)(=O)N2CC(c3nc(-c4ccncc4)no3)C2)c1` registered an RP-LC retention time of 590 s. In the case of `CN(C)CCCNC(=O)Cn1c(=O)n(-c2ccccc2)c2ncccc21`, the RP-LC retention time was determined as 592 s. Consider `Cc1ccccc1-c1nnc(CSc2nnc(NC(=O)C(C)C)s2)o1`, for which the RP-LC retention time stood at 843 s. In the case of `O=C(NC1CCCCC1)C1CCCN(c2ncnc3c2oc2ccccc23)C1` (stereo unspecified), the RP-LC retention time is 758 s.

Take `CC1CCN(C(=O)CN2C(=O)C3CCCCN3c3ccc(C(=O)N4CCCC4)cc32)CC1` (stereo unspecified): the RP-LC retention time was found to be 815 s. Turning to `CCNc1cc(C)nc(N2CCN(C(=O)c3ccc(-c4ccccc4)cc3)CC2)n1`, the RP-LC retention time came out at 746 s.

Consider `CCOc1ccc(C(=O)N2CCC3(C2)C(=O)Nc2ccc(OC)cc23)cc1` (stereo unspecified), for which the RP-LC retention time was determined as 737 s. Regarding `COCc1nncn1C1CN(C(=O)Cc2ccc(Cl)cc2)C1`, the RP-LC retention time was 642 s.

On to `CCOCCCNC(=O)c1ccc2c(c1)CCCN2S(C)(=O)=O`, for which the RP-LC retention time was 706 s. In the case of `COc1ccc(C2=NN(S(C)(=O)=O)C(c3ccc4nccnc4c3)C2)c(F)c1` (stereo unspecified), the RP-LC retention time turned out to be 740 s. `Cc1ccc(-n2ccnc(NC(=O)Nc3cccc(F)c3)c2=O)cc1C` returned an RP-LC retention time of 1070 s. `COc1ccc2c(c1)C1(CCN(S(=O)(=O)c3cc(F)ccc3C)C1)C(=O)N2C` (stereo unspecified) registered an RP-LC retention time of 997 s. The compound `Cc1ccc(-c2ccc(-n3nc(C)c(S(=O)(=O)Nc4ccccc4)c3C)nn2)cc1` displayed an RP-LC retention time of 1060 s. To `Cc1cc(=O)n2c(-c3ccc(NC(=O)C(C)Oc4ccc5c(c4)OCO5)cc3)csc2n1` (stereo unspecified) belongs 757 s; to `CCS(=O)(=O)Nc1ccc(C2(C(=O)NCc3ccccc3)CCCCC2)cc1`, 903 s. The compound `O=C(c1ccsc1)N1CCC(c2nc(-c3ccc(F)cc3)n[nH]2)CC1` registered an RP-LC retention time of 726 s.

Turning to `O=C(c1ccc(-n2cccn2)nc1)N1CCSCC1`, the RP-LC retention time was 714 s. Consider `COCCCN1C(=O)CSc2c(c3ccccc3n2C)C1C(=O)NCc1ccc(F)cc1` (stereo unspecified), for which the RP-LC retention time amounted to 893 s. In the case of `COC(=O)C1CCN(S(=O)(=O)c2cc3c4c(c2)CCC(=O)N4CCC3)CC1`, the RP-LC retention time stood at 724 s. On to `Cc1ccc(-n2nc(C)c3c(=O)n(CC(=O)NCc4ccccc4Cl)ccc32)cc1`, for which the RP-LC retention time was 872 s. Regarding `CCOC(=O)c1noc2nc(C)nc(Nc3ccc(CC)cc3)c12`, the RP-LC retention time came to 1160 s. Turning to `O=C1COc2ccccc2N1Cc1nc(-c2ccc(Cl)c(F)c2)no1`, the RP-LC retention time was 1120 s. On to `CC1CCN(CCCNC(=O)c2nnc(-c3ccc(S(=O)(=O)N4CCCC4)cc3)o2)CC1`, for which the RP-LC retention time stood at 642 s. Compound `CC(C)Cn1c(=O)c(N2CCN(C(=O)C(C)C)CC2)nc2ccccc21` showed an RP-LC retention time of 1020 s.

`O=C(C1COc2ccccc2O1)N1CCc2cc(-c3ccno3)ccc21` (stereo unspecified): the RP-LC retention time came out at 991 s.

Compound `CCOC(=O)CC1=CC(SCC(=O)N2CCC(C)CC2)=Nc2ccccc2N1` registered an RP-LC retention time of 1150 s. In the case of `CCN1CCN(c2cc(C)c3cc(NC(=O)COc4ccc(F)cc4)ccc3n2)CC1`, the RP-LC retention time is 594 s.

Regarding `Cc1scc2nc(C(=O)NC(C)C)nc(N(C)C)c12`, the RP-LC retention time worked out at 581 s. For `O=C(Nc1cnc(N2CCCC2)nc1)c1cccc(F)c1` the value was 716 s; for `O=C(N[C@H]1C[C@@H]2C[C@H]1N(C(=O)c1ccccc1Cl)C2)c1cccs1`, 643 s. `CCCNC(=O)c1sc(-n2nc(C)c(Cl)c2C)nc1C` returned an RP-LC retention time of 1130 s. Take `Cc1ccc(NC(=O)N2CCC(N3CCN(Cc4ccccn4)C(=O)C3=O)CC2)cc1Cl`: the RP-LC retention time was 658 s. For `CCNC(=O)N1CCc2c(c(-c3nc(Cc4ccccc4)no3)nn2C)C1` the value was 742 s; for `CCOc1ccc(NC(=O)N2CCC3(CC2)NC(=O)c2cc(Cl)ccc2N3C)cc1`, 858 s.

Turning to `O=C(NC1CCCC1)C1CC(=O)N(CCc2c[nH]c3ccc(Cl)cc23)C1` (stereo unspecified), the RP-LC retention time is 769 s. To `Cc1ccc(NS(=O)(=O)c2cc(-c3[nH]ncc3C(=O)N3CCCC3)oc2C)cc1F` belongs 741 s; to `COc1ccc(Nc2nc(N3CCN(C)CC3)nc3c2C(=O)CC(C)(C)C3)cc1`, 706 s. Compound `O=C(Cc1ccccc1Cl)NCC(O)c1ccc(C(F)(F)F)cc1` (stereo unspecified) showed an RP-LC retention time of 806 s.

`O=C([C@@H]1C[C@H](Oc2ccccc2)CN1C(=O)c1ccco1)N1CCCC1` gave an RP-LC retention time of 603 s.

Regarding `Cc1cc(-n2c(C)nc3ccccc3c2=O)ccc1NC(=O)CCC1CCCC1`, the RP-LC retention time turned out to be 892 s.

Compound `O=S(=O)(Cc1c(F)cccc1Cl)N1CCc2nc(-c3ccc(F)cc3)ncc2C1` showed an RP-LC retention time of 1130 s.

In the case of `O=C(Nc1cccnc1)N1CCC(Cc2cccc(Oc3ccc(C(F)(F)F)cn3)c2)CC1`, the RP-LC retention time was 866 s.
